# Where a name gives a salt, the structure may show the parent alone. Read-outs that look alike come from different tables or passages of the source.
# What was measured:
# [1] = biological target: PI3Kγ (p110γ) Recombinant Human Protein (Homo sapiens (Human), UniProt P48736); assay: PI3K-γ Scintillation Proximity Assay; type: biochemical; details: read-out: PI3Kγ IC50
# In short: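 Recombinant human p110γ assayed at room temperature in 20 mM MOPS pH 6.7, 10 mM MgCl2, 5 mM DTT, 0.03% CHAPS, 2% DMSO, with 20 μM PIP2 and 2 μM ATP plus [γ-33P]ATP. Product captured on WGA SPA beads overnight and counted; IC50 fitted from % of solvent-control activity versus log inhibitor concentration.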
# [2] = test system: Phosphorylated Ribosomal Protein S6 (RPS6); assay: THP-1 RPS6 ELISA Assay; type: cell-based, Human; details: THP-1 cells, read-out: PI3Kγ_THP1_RPS6_ELISA IC50
# In short: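 Serum-starved THP-1 cells were preincubated with a concentration range of compound for 2 h at 37 °C, then stimulated with 10 nM MCP-1 for 15 min. Phospho-RPS6 in lysates was quantified by ELISA at 450 nm. IC50 came from percent inhibition versus log inhibitor concentration.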
# [3] = biological target: PI3Kδ (p110δ/p85α) Recombinant Human Protein (Homo sapiens (Human), UniProt O00329); assay: PI3Kδ Scintillation Proximity Assay; type: biochemical
# Sequence of PI3Kδ (p110δ/p85α) Recombinant Human Protein (O00329 whole entry): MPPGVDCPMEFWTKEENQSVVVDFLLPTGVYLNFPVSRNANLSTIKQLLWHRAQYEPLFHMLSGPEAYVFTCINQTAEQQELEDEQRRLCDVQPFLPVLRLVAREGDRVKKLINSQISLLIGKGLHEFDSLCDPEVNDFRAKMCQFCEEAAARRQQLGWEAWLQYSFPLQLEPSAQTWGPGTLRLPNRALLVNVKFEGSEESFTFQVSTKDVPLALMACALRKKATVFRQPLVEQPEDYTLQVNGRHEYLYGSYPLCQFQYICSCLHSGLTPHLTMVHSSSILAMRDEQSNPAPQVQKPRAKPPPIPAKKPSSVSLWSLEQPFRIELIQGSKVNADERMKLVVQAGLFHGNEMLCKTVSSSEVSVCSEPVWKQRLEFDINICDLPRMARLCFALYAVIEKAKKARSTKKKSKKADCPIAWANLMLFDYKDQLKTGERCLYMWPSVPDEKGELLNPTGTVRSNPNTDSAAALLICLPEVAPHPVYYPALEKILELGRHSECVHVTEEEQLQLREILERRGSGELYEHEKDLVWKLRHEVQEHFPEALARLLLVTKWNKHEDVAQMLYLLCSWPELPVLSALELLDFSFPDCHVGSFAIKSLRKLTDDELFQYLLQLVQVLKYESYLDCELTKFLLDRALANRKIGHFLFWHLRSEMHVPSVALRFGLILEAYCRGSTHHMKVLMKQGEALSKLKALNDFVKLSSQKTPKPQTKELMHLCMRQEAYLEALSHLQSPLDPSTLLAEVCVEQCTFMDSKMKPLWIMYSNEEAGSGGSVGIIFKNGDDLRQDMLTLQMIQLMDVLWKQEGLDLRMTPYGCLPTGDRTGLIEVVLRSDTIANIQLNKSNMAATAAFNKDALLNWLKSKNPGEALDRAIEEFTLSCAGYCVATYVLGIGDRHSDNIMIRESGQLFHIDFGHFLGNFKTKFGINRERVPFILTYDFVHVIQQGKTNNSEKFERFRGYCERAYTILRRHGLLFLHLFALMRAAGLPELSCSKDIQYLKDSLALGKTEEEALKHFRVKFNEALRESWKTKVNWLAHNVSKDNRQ
# Sequence of PI3Kδ (p110δ/p85α) Recombinant Human Protein (P27986 whole entry partner): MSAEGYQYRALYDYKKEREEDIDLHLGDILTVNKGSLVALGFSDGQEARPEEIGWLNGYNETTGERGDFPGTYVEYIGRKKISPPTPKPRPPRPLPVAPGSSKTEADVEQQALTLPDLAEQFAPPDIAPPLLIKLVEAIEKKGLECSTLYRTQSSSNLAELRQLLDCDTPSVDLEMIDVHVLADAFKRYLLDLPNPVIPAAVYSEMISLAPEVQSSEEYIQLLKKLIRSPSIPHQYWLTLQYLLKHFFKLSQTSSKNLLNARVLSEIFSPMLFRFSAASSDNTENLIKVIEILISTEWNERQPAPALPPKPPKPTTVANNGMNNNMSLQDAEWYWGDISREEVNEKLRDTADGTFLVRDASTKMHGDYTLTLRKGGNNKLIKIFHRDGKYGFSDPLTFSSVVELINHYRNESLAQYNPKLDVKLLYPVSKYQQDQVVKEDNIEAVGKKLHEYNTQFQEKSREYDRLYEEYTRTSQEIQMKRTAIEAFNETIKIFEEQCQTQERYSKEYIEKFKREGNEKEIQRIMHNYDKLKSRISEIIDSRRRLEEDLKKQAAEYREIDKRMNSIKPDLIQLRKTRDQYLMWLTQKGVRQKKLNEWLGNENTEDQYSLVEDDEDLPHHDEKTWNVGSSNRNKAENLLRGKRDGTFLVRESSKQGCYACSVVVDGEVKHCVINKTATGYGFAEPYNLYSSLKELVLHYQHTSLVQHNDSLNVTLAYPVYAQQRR
# In short: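 Recombinant human p110δ/p85α (3.4 nM) phosphorylates 20 μM di-octanoyl PIP2 using 2 μM ATP spiked with [γ-33P]ATP, 120 min, room temperature, pH 6.7, 2% DMSO. Product measured by scintillation proximity; IC50 from dose-response fit.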
# Sequence of PI3Kγ (p110γ) Recombinant Human Protein (P48736 whole entry): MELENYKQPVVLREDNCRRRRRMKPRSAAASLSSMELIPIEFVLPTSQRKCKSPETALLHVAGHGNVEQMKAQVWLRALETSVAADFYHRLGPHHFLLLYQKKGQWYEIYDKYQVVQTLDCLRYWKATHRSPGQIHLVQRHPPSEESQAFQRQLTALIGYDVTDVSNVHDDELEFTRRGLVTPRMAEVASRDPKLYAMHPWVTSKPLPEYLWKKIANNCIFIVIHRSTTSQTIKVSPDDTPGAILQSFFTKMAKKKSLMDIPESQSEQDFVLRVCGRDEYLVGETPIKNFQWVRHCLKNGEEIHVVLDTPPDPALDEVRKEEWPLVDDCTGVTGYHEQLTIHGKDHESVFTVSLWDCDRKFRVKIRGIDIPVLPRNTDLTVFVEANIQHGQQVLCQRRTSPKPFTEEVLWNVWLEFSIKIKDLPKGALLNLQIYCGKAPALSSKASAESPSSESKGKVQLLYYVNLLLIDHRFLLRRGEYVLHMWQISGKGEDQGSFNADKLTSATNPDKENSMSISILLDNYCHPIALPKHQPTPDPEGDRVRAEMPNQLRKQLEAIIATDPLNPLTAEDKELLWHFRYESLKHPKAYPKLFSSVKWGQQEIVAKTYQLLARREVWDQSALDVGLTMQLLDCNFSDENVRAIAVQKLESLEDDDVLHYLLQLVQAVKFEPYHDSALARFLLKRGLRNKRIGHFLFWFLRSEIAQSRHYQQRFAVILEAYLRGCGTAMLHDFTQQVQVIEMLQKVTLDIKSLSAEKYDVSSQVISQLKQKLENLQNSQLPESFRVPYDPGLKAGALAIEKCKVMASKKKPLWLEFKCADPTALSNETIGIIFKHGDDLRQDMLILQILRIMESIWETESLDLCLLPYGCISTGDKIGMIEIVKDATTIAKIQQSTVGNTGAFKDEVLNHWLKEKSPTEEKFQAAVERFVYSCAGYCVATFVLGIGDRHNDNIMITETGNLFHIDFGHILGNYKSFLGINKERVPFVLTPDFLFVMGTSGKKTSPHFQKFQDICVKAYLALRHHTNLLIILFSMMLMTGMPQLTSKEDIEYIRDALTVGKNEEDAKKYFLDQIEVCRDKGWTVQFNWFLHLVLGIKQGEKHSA
SMILES,IC50 [1],IC50 [2],IC50 [3],IC50 ([2]; Homo sapiens)
"[2H]C([2H])([2H])c1ccc(S(=O)(=O)N2CCCC(CO)C2)cc1-c1cnc2c(N)nc(C(F)(F)F)cn12 (stereo not drawn) [Example 409, (1-((3-(8-Amino-6-(trifluoromethyl)imidazo[1,2-a]pyrazin-3-yl)-4-(methyl-d3)phenyl)sulfonyl)piperidin-3-yl)methanol]",< 100 nM,–,100 to 500 nM,100 to 500 nM
"Cc1cc(Cl)c(S(=O)(=O)N[C@H]2CC[C@](C)(O)CC2)cc1-c1cnc2c(N)nc(C(F)(F)F)nn12 [Example 410, 5-(4-Amino-2-(trifluoromethyl)imidazo[1,2-f][1,2,4]triazin-7-yl)-2-chloro-N-((1r,4r)-4-hydroxy-4-methylcyclohexyl)-4-methylbenzenesulfonamide trifluoroacetate salt]",< 100 nM,< 100 nM,< 100 nM,–
"Nc1nc(C(F)(F)F)nn2c(-c3cccc(S(=O)(=O)NC45CCC(CO)(C4)C5)c3)cnc12 [Example 411, 3-(4-Amino-2-(trifluoromethyl)imidazo[1,2-f][1,2,4]triazin-7-yl)-N-(4-(hydroxymethyl)bicyclo[2.1.1]hexan-1-yl)benzenesulfonamide trifluoroacetate salt]",< 100 nM,100 to 500 nM,100 to 500 nM,–
"Cc1cc(F)c(S(=O)(=O)N[C@H]2CC[C@](C)(O)CC2)cc1-c1cnc2c(N)nc(C(F)(F)F)nn12 [Example 412, 5-(4-Amino-2-(trifluoromethyl)imidazo[1,2-f][1,2,4]triazin-7-yl)-2-fluoro-N-((1r,4r)-4-hydroxy-4-methylcyclohexyl)-4-methylbenzenesulfonamide trifluoroacetate salt]",< 100 nM,< 100 nM,100 to 500 nM,–

# Further lines, results first:
IC50 [1],IC50 [2],IC50 [3],IC50 ([2]; Homo sapiens),SMILES
< 100 nM,< 100 nM,100 to 500 nM,–,"Cc1nc(N)c2ncc(-c3cc(S(=O)(=O)NCC(C)(C)O)c(Cl)cc3C)n2n1 [Example 403, 5-(4-amino-2-methylimidazo[1,2-f][1,2,4]triazin-7-yl)-2-chloro-N-(2-hydroxy-2-methylpropyl)-4-methylbenzenesulfonamide trifluoroacetate salt]"
< 100 nM,< 100 nM,< 100 nM,–,"Cc1nc(N)c2ncc(-c3cc(S(=O)(=O)NC45CCC(CO)(CC4)OC5)cc(F)c3C)n2n1 [Example 404, 3-(4-amino-2-methylimidazo[1,2-f][1,2,4]triazin-7-yl)-5-fluoro-N-(1-(hydroxymethyl)-2-oxabicyclo[2.2.2]octan-4-yl)-4-methylbenzenesulfonamide trifluoroacetate salt]"
< 100 nM,–,100 to 500 nM,< 100 nM,"Cc1cc(F)c(S(=O)(=O)N[C@H]2CC[C@H](CC#N)OC2)cc1-c1cnc2c(N)nc(C(F)(F)F)cn12 [Example 405, 5-(8-amino-6-(trifluoromethyl)imidazo[1,2-a]pyrazin-3-yl)-N-((3S,6R)-6-(cyanomethyl)tetrahydro-2H-pyran-3-yl)-2-fluoro-4-methylbenzenesulfonamide trifluoroacetate salt]"
< 100 nM,–,< 100 nM,< 100 nM,"[2H]C([2H])([2H])c1ccc(S(=O)(=O)N[C@H]2CC[C@H](CC#N)OC2)cc1-c1cnc2c(N)nc(C(F)(F)F)cn12 [Example 406, 3-(8-amino-6-(trifluoromethyl)imidazo[1,2-a]pyrazin-3-yl)-N-((3S,6R)-6-(cyanomethyl)tetrahydro-2H-pyran-3-yl)-4-(methyl-d3)benzenesulfonamide]"
< 100 nM,–,100 to 500 nM,> 1000 nM,"Cc1cc(F)c(S(=O)(=O)N2CCCC(CO)C2)cc1-c1cnc2c(N)nc(C(F)(F)F)cn12 (stereo not drawn) [Example 408, (1-((5-(8-Amino-6-(trifluoromethyl)imidazo[1,2-a]pyrazin-3-yl)-2-fluoro-4-methylphenyl)sulfonyl)piperidin-3-yl)methanol]"

# — US10479795B2 (Incyte Corporation, priority 2016, dated 2019)
